Assay: wn = mass fraction of the nth substance listed
Settings: 393.15 K, Liquid; for viscosity: Falling or rolling sphere viscometry; for mass density: Vibrating tube method

CN(C)CCO [2-(N,N-dimethylamino)ethanol] + O
Settings	mass density, w1 = 0.1005 [kg/m3]	mass density, w1 = 0.202 [kg/m3]	mass density, w1 = 0.3005 [kg/m3]	mass density, w1 = 0.3995 [kg/m3]	viscosity, w1 = 0.1005 [mPa·s]	viscosity, w1 = 0.202 [mPa·s]	viscosity, w1 = 0.3005 [mPa·s]	viscosity, w1 = 0.3995 [mPa·s]
10000 kPa	939.7	930.5	920.8	910	–	–	0.4367	0.5259
15000 kPa	942.1	933	923.4	912.8	0.2973	0.3585	0.4425	0.5368
20000 kPa	944.6	935.6	926.1	915.7	0.2998	0.3624	0.4483	0.5458
25000 kPa	–	–	–	–	0.3019	0.366	0.4536	0.5538
30000 kPa	949.3	940.5	931.2	921	0.3036	0.3687	0.4597	0.5613
40000 kPa	953.9	945.2	936.2	926.3	0.3078	0.3736	0.4697	0.578
50000 kPa	958.2	949.6	940.8	931	–	–	–	–
60000 kPa	962.6	954.1	945.3	935.9	0.3147	0.3862	0.489	0.6086
70000 kPa	966.9	958.5	949.8	940.5	–	–	–	–
80000 kPa	971	962.4	953.9	944.8	0.322	0.3985	0.5076	0.6407
90000 kPa	975	966.6	958.1	949.2	–	–	–	–
100000 kPa	978.8	970.5	962.2	953.2	0.3308	0.4097	0.5265	0.6716
110000 kPa	982.7	974.3	966	957.3	–	–	–	–
120000 kPa	986.5	978.2	969.9	961.2	–	–	–	–
130000 kPa	990	981.7	973.5	964.9	–	–	–	–
140000 kPa	993.7	985.3	977.2	968.9	–	–	–	–
